For data set [1], the system named is in vitro plaque. In words: in vitro artificial plaque assay on saliva-coated aluminium plummets (Tests 1, 3, 4 and general statements). The note with it: for minimum amount of the metal compound necessary to result in control of plaque: at the site of formation of the plaque, under the conditions of the tests. In kind it is cell-based. Here is the method: An in vitro test was used in the Tests described herein for examining and effects of chemotherapeutic agents on plaque, and was carried out in accordance with the test reported in the Journal of Dental Research, Vol. 55, February 1976, page B286, by R T Evans, P J Baker, R A Coburn and R J Genco. An assay system for producing artificial plaque was used to screen antiplaque agents rapidly under conditions which simulated those found in the oral cavity.
The in vitro plaque was formed at 37°C on uniformly- sized aluminium plummets which were first coated with saliva. The plummets were then placed in a growth medium inoculated with clinical plaque samples. After seven hours the plummets were suspended overnight in a 25;0 saliva mixture. On the second day, the plummets were immersed in a 50% saliva - 50% test compound mixture for one minute, placed in the growth medium for seven hours, retreated with the test mixture and suspended in 25% saliva overnight. The plummets were treated again on the third day and incubated in the growth medium for three hcurs. The plaques were removed from the plummets by donication into approximately six millilitres of buffer and quantitated by optical density (O.D.) in a Beckman DU spectrophotometer at 570 nm.
Positive controls were included to determine relative activity. Comparisons of antiplaque activity were then made within a given experiment. At least five replicas per compound were examined.
The experiments are conducted in the same manner, in a 15% ethanol/water media at pH 5.
The effects of 0.060% tetradecylamine (TDA) 0.05 SnCl4, and the combination of SnCl and TDA at these concentrations are examined by the artificial plaque method previously described, all with 15% ethanol, at pH 2.6.

A further data set concerns rats. As to conditions: orally in rats; Seventh Issue of the Merck Index; cited from earlier work.
The subject of another data set is plaque. The note with it: clinical data, zinc salt alone; cited from earlier work.
For data set [2], the system named is in vitro plaque. Description: in vitro artificial plaque assay, treatment on the third day eliminated (Test 2). Format: cell-based. The note with it: no treatment on third day. Here is the method: An in vitro test was used in the Tests described herein for examining and effects of chemotherapeutic agents on plaque, and was carried out in accordance with the test reported in the Journal of Dental Research, Vol. 55, February 1976, page B286, by R T Evans, P J Baker, R A Coburn and R J Genco. An assay system for producing artificial plaque was used to screen antiplaque agents rapidly under conditions which simulated those found in the oral cavity. […] The assay gives reproducible, quantitative results and has the ability to distinguish between antibacterial agents which are clinically effective or non-effective as plaquae inhibitors. The in vitro plaque was formed at 37°C on uniformly- sized aluminium plummets which were first coated with saliva. The plummets were then placed in a growth medium inoculated with clinical plaque samples. After seven hours the plummets were suspended overnight in a 25;0 saliva mixture. On the second day, the plummets were immersed in a 50% saliva - 50% test compound mixture for one minute, placed in the growth medium for seven hours, retreated with the test mixture and suspended in 25% saliva overnight. The plummets were treated again on the third day and incubated in the growth medium for three hcurs. The plaques were removed from the plummets by donication into approximately six millilitres of buffer and quantitated by optical density (O.D.) in a Beckman DU spectrophotometer at 570 nm. […] Positive controls were included to determine relative activity. Comparisons of antiplaque activity were then made within a given experiment. At least five replicas per compound were examined. To test higher levels of tetradecylamine, the artificial plaque treatment previously described is eliminated on the third day to simulate infrequent use of the antiplaque products.

Data set [3] can be described thus: critical micellar concentration (CMC). In kind it is physicochemical.
Setting [4] is: amine in place of tetradecylamine, in combination with metal compounds (zinc or aluminium).
The mark [5] stands for this setting: metal salt alone 0.10 % Wt./Vol., 15% ethanol/water, pH 5.
[6] abbreviates: cation or anion as such, by the in vitro assay.
Where [7] appears, read: addition of CO2 to tetradecylamine.

Entries after “also recorded” stand apart in the source; their conditions may differ. Where two headings read alike, the source gives them in different places. Marks after values point to notes of the source that are not given here.

With `CCCCCCCCCCCCN(C)C` [dimethyldodecylamine, reference compound], the synergistic plaque reductions result in the data set on in vitro plaque [1] (setting [4]) was “do not give synergistic plaque reductions”.

Regarding `CCCCCCCCCCCCCCCCN` [hexadecylamine, reference compound], in the data set on in vitro plaque [1] (setting [4]), the synergistic plaque reductions entry was “do not give synergistic plaque reductions; also recorded: not found”.

On to `[Ni]` [nickel], for which, in the data set on rats, the LD50 is 0.3-0.9 g/kg body weight. The “minimum amount of the metal compound necessary to result in control of plaque” value (shortened to “minimum amount”) in the data set on in vitro plaque [1] is roughly 500 µM.

Take `O.O.O.O.O.O.[Cl-].[Cl-].[Cl-].[Fe+3]` [FeCl3.6H2O, reference compound]: the “% Reduction” value in the data set on in vitro plaque [1] (setting [5]) is -38%.

Regarding `[Zn]` [zinc], in the data set with rats, the LD50 is recorded as 3-4 g/kg body weight. Also, the “minimum amount” value in the data set on in vitro plaque [1] is given as “about 0.001 molar”.

For `O=[N+]([O-])O` [nitrate], the synergistic plaque reductions entry in the data set with in vitro plaque [1] is listed as “synergism has not been found; also recorded: synergism was not found”.

Regarding `CCCCCCCCCCCCN` [Dodecylamine, reference compound], the synergistic plaque reductions result with in vitro plaque [1] (setting [4]) is on record as “do not give synergistic plaque reductions”; with in vitro plaque [1] (amine in place of tetradecylamine, in combination with metal compounds (zinc or aluminium), listed as dodecylamine), “not found”.

On to `CCCCCCCCCCCCCCCC[n+]1ccccc1` [CPC, cetyl pyridinium chloride, reference compound], for which, in the data set on in vitro plaque [1] (pH 4.1), the “Average Optical Density” value is reported as “.515”.

With `[Na]` [sodium], in the data set on in vitro plaque [1] (setting [6]), the synergistic plaque reductions result is on record as “have not been found to give synergistic plaque reductions; also recorded: did not give synergistic plaque reductions”.

In the case of `O.O.O.O.O.O.[Cl][Ni][Cl]` [NiCl2.6H2O, reference compound], in the data set with in vitro plaque [1] (setting [5]), the “% Reduction” value is -17%.

Regarding `CCCCCCCCCCCCCCCCCCN(C)C` [N,N'-dimethyl-octadecylamine, reference compound], in the data set with in vitro plaque [1] (setting [4]), the synergistic plaque reductions result was “do not give synergistic plaque reductions”.

Turning to `F` [fluoride], the synergistic plaque reductions entry with in vitro plaque [1] was “synergism has not been found; also recorded: synergism was not found”.

Turning to phosphate, the synergistic plaque reductions result in the data set on in vitro plaque [1] (setting [6]) is given as “synergism has not been found; also recorded: synergism was not found”.

Consider `[Cu]` [copper], for which, in the data set with rats, the LD50 is 0.3-0.9 g/kg body weight. Also, in the data set with in vitro plaque [1], the “minimum amount” value is roughly 500 µM.

Take `O=S(=O)(O)O` [sulphate]: the synergistic plaque reductions entry with in vitro plaque [1] (setting [6]) is “synergism has not been found; also recorded: synergism was not found”.

For the compound `[Cl-].[Cl-].[Zn+2]` [ZnCl2, reference compound], the “Average Optical Density” value with in vitro plaque [1] (ZnCl2 .30 % Wt/Vol, 15% ethanol, pH 4.1, O.D. at 570 nm) is listed as “.766”. Besides, the “% Reduction” value in the data set on in vitro plaque [1] (ZnCl2 .30 % Wt/Vol, 15% ethanol, pH 4.1, vs H2O control, negative = weight gain) is recorded as -8.0* %.

In the case of `[O-][n+]1ccccc1[S-].[O-][n+]1ccccc1[S-].[Zn+2]` [zinc salt], the reduction in plaque entry in the data set on plaque is “about 5%”.

Regarding `[K+]` [potassium], the synergistic plaque reductions result in the data set with in vitro plaque [1] (setting [6]) was “have not been found to give synergistic plaque reductions; also recorded: did not give synergistic plaque reductions”.

For the compound `CCCCCCCCCCN` [decylamine, reference compound], in the data set with in vitro plaque [1] (setting [4]), the synergistic plaque reductions entry is reported as “do not give synergistic plaque reductions”.

For `[Mg+2]` [magnesium], in the data set with in vitro plaque [1] (setting [6]), the synergistic plaque reductions result was “have not been found to give synergistic plaque reductions; also recorded: did not give synergistic plaque reductions”.

For the compound `CCCCCCCCCCCCCCN` [TDA, tetradecylamine, reference compound], the “Average Optical Density” value is listed as “.882” in the data set on in vitro plaque [2] (TDA .120 % Wt/Vol) and “.571” with in vitro plaque [1] (TDA .060 % Wt/Vol, 15% ethanol, pH 4.1, O.D. at 570 nm). In addition, the inhibition at 0.12 % in the data set with in vitro plaque [2] (TDA .120 % Wt/Vol, vs H2O control, read-out: % Reduction) amounted to 20.7%. Besides, in data set [3] (setting [7]), the CMC result is “lowering”. In addition, the “critical micellar concentration (CMC)” value in data set [3] (in combination with selected metals) was “lowered”. In addition, the inhibition at 0.06 % was determined as 19% with in vitro plaque [1] (TDA 0.06 % Wt./Vol., 15% ethanol/water, pH 5, read-out: % Reduction); 19% in the data set on in vitro plaque [1] (TDA 0.06 % Wt/Vol., 15% ethanol, pH 2.6, read-out: % Reduction); 18.8% in the data set with in vitro plaque [1] (TDA .060 % Wt/Vol, 15% ethanol, pH 4.1, vs H2O control, read-out: % Reduction); 18% in the data set with in vitro plaque [1] (dose-response curve, tetradecylamine 0.060%, no metal present, read-out: plaque reduction). For the same compound, in the data set on in vitro plaque [1] (setting [7]), the antiplaque activity entry was “increased”. Further, the inhibition at 0.2 % with in vitro plaque [1] (dose-response curve, tetradecylamine 0.20%, no metal present, read-out: plaque reduction) stood at 44%.

On to `[HH]` [hydrogen], for which, in the data set on in vitro plaque [1] (setting [6]), the synergistic plaque reductions result is listed as “have not been found to give synergistic plaque reductions; also recorded: did not give synergistic plaque reductions”.

In the case of `O.O.O.O.O.O.[Cl-].[Cl-].[Co+2]` [CoCl2.6H2O, reference compound], the “% Reduction” value in the data set with in vitro plaque [1] (setting [5]) is recorded as -25%.

Consider `[Al]` [aluminium], for which the LD50 in the data set on rats is 3-4 g/kg body weight. Besides, in the data set with in vitro plaque [1], the “minimum amount” value is recorded as “about 0.001 molar”.

On to `O.O.O.O.O.O.[Al+3].[Cl-].[Cl-].[Cl-]` [AlCl3.6H2O], for which the “Average Optical Density” value in the data set on in vitro plaque [2] (AlCl3.6H2O 1.00 % Wt/Vol) worked out at 1.218; in the data set with in vitro plaque [2] (AlCl3.6H2O .250 % Wt/Vol), 1.080. In addition, the “% Reduction” value in the data set on in vitro plaque [2] (AlCl3.6H2O 1.00 % Wt/Vol, negative = weight gain) is -9.4* %; in the data set with in vitro plaque [2] (AlCl3.6H2O .250 % Wt/Vol, vs H2O control), 3.0%.

For the compound `Cl` [chloride], the synergistic plaque reductions entry with in vitro plaque [1] (setting [6]) is listed as “synergism has not been found; also recorded: synergism was not found”.

On to `[Co]` [cobalt], for which the LD50 in the data set on rats was 0.3-0.9 g/kg body weight. In the data set with in vitro plaque [1], the “minimum amount” value was roughly 500 µM.

Turning to `O.O.O.O=[N+]([O-])[O-].O=[N+]([O-])[O-].[Cu+2]` [Cu(NO3)2.3H2O, reference compound], the “% Reduction” value in the data set with in vitro plaque [1] (setting [5]) is -10%.

As to `[Fe]` [iron], the LD50 in the data set with rats was 0.3-0.9 g/kg body weight. Further, the “minimum amount” value in the data set on in vitro plaque [1] was roughly 500 µM.

In the case of `O.O.O.O.O.[Cl][Sn]([Cl])([Cl])[Cl]` [SnCl4.5H2O, reference compound], in the data set with in vitro plaque [1] (SnCl4.5H2O 0.05 % Wt/Vol., 15% ethanol, pH 2.6, negative = weight gain), the “% Reduction” value is reported as -8* %.

`[Sn]` [tin]: the LD50 result with rats was “about 0.05 g/kg body weight”. Also, the “minimum amount” value in the data set on in vitro plaque [1] is roughly 500 µM.

As for `[Ca+2]` [calcium], the synergistic plaque reductions result in the data set with in vitro plaque [1] is “have not been found to give synergistic plaque reductions; also recorded: did not give synergistic plaque reductions”.

Source of the values: EP0011663A1, “Toilet and dental preparations and their use for oral and dental hygiene” (UNILEVER PLC, priority 1978, dated 1980).
